Source: patent publication US11802114B2, “Compounds and methods for detection of superoxide” (Promega Corporation, priority 2021, dated 2023)

How the values were obtained:
[1] = system: xanthine oxidase; test: Detection of xanthine oxidase activity in vitro; assay type: biochemical; details: 25 μl of 75 μM probe, FIG. 5
Excerpt: Xanthine oxidase (XO) is an enzyme that catalyzes the oxidation of hypoxanthine or xanthine to uric acid and superoxide. XO is normally found in liver and jejunum and plays an important role in the catabolism of purines. During severe liver damage, xanthine oxidase is released into blood and can be used as a marker for liver damage. Here is shown an example of measuring xanthine oxidase activity using pro-luciferin compounds described herein. Purified xanthine oxidase was 3× fold serially diluted in 0.1M Tris (pH7.5). 25 μl of diluted enzyme was transferred into wells of a 96-well assay plate, and the reaction was started by adding 25 μl of 300 μM xanthine and 25 μl of 75 μM Compound 20. After 10, 20, 30, and 60 minutes incubations at 37° C., 75 μl of Luciferin Detection Reagent containing esterases was added to the samples, and luminescence was read after additional 20 minutes incubation at room temperature.

[2] = system: RAW 247.6 macrophage cell line; test: Detection of PMA-induced superoxide production by macrophages; assay type: cell-based; details: 50 μl of 50 μM Compound 18 (FIG. 6A) or 100 μM Compound 20 (FIG. 6B), 2 hours at 37° C.; for luminescence signal with PMA treatment: 20 μM PMA
Experimental: Production of superoxide by macrophages plays an important role in immune response and inflammation. Superoxide is produced by nicotinamide adenine dinucleotide phosphate (NADPH) oxidases (known as NOX enzymes) and is induced by PMA (4β-phorbol-12-myristate-13-acetate). Here is shown an example of measuring PMA-induced superoxide production in RAW 247.6 macrophage cell line. RAW 247.6 cells were plated overnight in DMEM medium with 10% FBS. To start the experiment, the medium was removed, cells were washed once with PBS, and 50 μl of PBS containing 5 mM glucose, 1 mM MgCl2, 0.5 mM CaCl2, and 0.05% BSA was added to the cells in the presence or absence of 20 μM PMA. To measure production of superoxide, 50 μl of 50 μM Compound 18 (FIG. 6A) or 100 μM Compound 20 (FIG. 6B) was added to the cells. Cells were treated for 2 hours at 37° C. with luciferin production measured by adding equal volume of Luciferin Detection Reagent with esterases, and luminescence read after 20 minutes incubation at room temperature.

[3] = system: RAW 247.6 macrophage cells; test: Detection of superoxide production in kinetic mode (media sampling); assay type: cell-based; details: 50 μM probe, 20 μM PMA, 10, 20, 30 and 60 minutes, FIG. 7
Experimental: RAW 247.6 macrophage cells were plated at 30,000 cells per well overnight in DMEM medium with 10% FBS. The following day, the medium was removed, and cells were washed with PBS. 100 μl PBS containing 5 mM glucose, 1 mM MgCl2, 0.5mM CaCl2, 0.05% BSA, and 50 μM Compound 20 were added to the cells in the presence or absence of 20 μM PMA. The cells were placed back at 37° C. in tissue culture incubator. At different time points (10, 20, 30 and 60 minutes), 10 μl was removed from the samples, mixed with 10 μl of Luciferin Detection Reagent with esterases, and luminescence read following a 20 minute incubation at room temperature.

[4] = system: superoxide; test: Cell-free detection of and specificity for superoxide (luciferase luminescence); assay type: biochemical; details: probe 25 μM in PBS, FIG. 3
Experimental: The superoxide probe, Compound 1 (6-(4-hydroxy-3,5-dimethoxyphenoxy)benzo[d]thiazole-2-carbonitrile), was diluted into PBS to 25 μM into wells of a 96-well white-walled assay plate. Subsequently, generators of reactive oxygen and nitrogen species were diluted in PBS and added to the assay plate. The plate mixed using an orbital plate shaker for 5 minutes followed by a 30-minute incubation at room temperature protected from light. For luciferin detection, the luciferin-utilizing luciferase enzyme, UltraGlo (Promega Corporation), was prepared by mixing Luciferin Detection Reagent (Promega), Reconstitution Buffer (Promega), and d-Cysteine (Promega), and one volume was added to the reaction. The plate was mixed using an orbital plate shaker, and luminescence was measured using a GloMax® luminometer. Data are shown in FIG. 3; the blank includes PBS only; HX=hypoxanthine; XO=xanthine oxidase; and SOD=superoxide dismutase. […] This signal decreased in the presence of superoxide dismutase, confirming that superoxide is the source of the signal.

[5] = system: Human hepatocarcinoma cells (Hep G2); test: Detection of superoxide in cells; assay type: cell-based; details: probe 12.5 uM, 1 hour at 37° C., FIG. 4
Experimental: Human hepatocarcinoma cells (Hep G2) were plated into wells of 96-well white-walled assay tissue culture plates. Plated cells were incubated overnight in a humidified tissue culture incubator at 37° C. with 5% CO2. The following day the superoxide probe, Compound 1 (6-(4-hydroxy-3,5-dimethoxyphenoxy)benzo[d]thiazole-2-carbonitrile), was added to the cells in culture medium at a final concentration of 12.5 uM. Subsequently, dimethoxynaphthoquinone (DMNQ; 50 μM) or antimycin A (10 μM) diluted in culture medium was added to the reaction wells and the assay plate(s) were incubated for 1 hour in a humidified tissue culture incubator at 37° C. with 5% C02. For luciferin detection, the luciferin-utilizing luciferase enzyme, UltraGlo (Promega Corporation), was prepared by mixing Luciferin Detection Reagent (Promega), Reconstitution Buffer (Promega), and d-Cysteine (Promega), and one volume was added to the reaction. The plate was mixed using an orbital plate shaker, and luminescence was measured using a GloMax® luminometer.

Row | SMILES | increase in luminescence signal versus xanthine oxidase concentration and time ([1]; 300 μM xanthine, 10, 20, 30, and 60 minutes at 37° C.) | increase in luminescence signal, dependence on substrate ([1]; 25 μl of 300 μM xanthine, serially diluted XO, 37° C.) | luminescence signal with PMA treatment [2] | luminescence signal in the presence of cells compared to medium only control [2] | luminescence signal over time in cells treated with PMA [3] | luminescence signal in the presence of NONOate ([4]; 30-minute incubation) | luminescence signal in the presence of Rose Bengal (generates singlet oxygen) ([4]; 30-minute incubation) | luminescence signal in the presence of hydrogen peroxide ([4]; 30-minute incubation) | luminescence signal in the presence of sodium nitrite ([4]; 30-minute incubation) | luminescence signal in the presence of superoxide dismutase ([4]; HX + XO + SOD) | luminescence signal in the presence of HX and XO ([4]; hypoxanthine + xanthine oxidase (superoxide generator), 30-minute incubation at room temperature) | luminescence signal when cells were treated with DMNQ ([5]; DMNQ 50 μM) | luminescence signal when cells were treated with antimycin A ([5]; antimycin A 10 μM)
1 | COC(=O)[C@H]1CSC(c2nc3ccc(OC(=O)N(C)CCN(C)C(=O)Oc4ccc(OC(C)=O)c(OC(C)=O)c4)cc3s2)=N1 [Compound 20, (S)-4-(((2-((((2-(4-(methoxycarbonyl)-4,5-dihydrothiazol-2-yl)benzo[d]thiazol-6-yl)oxy)carbonyl)(methyl)amino)ethyl)(methyl)carbamoyl)oxy)-1,2-phenylene diacetate] | linear with respect to xanthine oxidase concentration and time | depended on the presence of the xanthine oxidase substrate, xanthine | increased significantly | higher luminescence signal | time dependent increase in signal |  |  |  |  |  |  |  | 
2 | CN(CCN(C)C(=O)Oc1ccc2nc(C3=N[C@@H](C(=O)O)CS3)sc2c1)C(=O)Oc1ccc(O)c(O)c1 [Compound 18, (S)-2-(6-(((2-(((3,4-dihydroxyphenoxy)carbonyl)(methyl)amino)ethyl)(methyl)carbamoyl)oxy)benzo[d]thiazol-2-yl)-4,5-dihydrothiazole-4-carboxylic acid] |  |  | increased significantly | higher luminescence signal |  |  |  |  |  |  |  |  | 
3 | COc1cc(Oc2ccc3nc(C#N)sc3c2)cc(OC)c1O [Compound 1, 6-(4-hydroxy-3,5-dimethoxyphenoxy)benzo[d]thiazole-2-carbonitrile] |  |  |  |  |  | Little to no signal | Little to no signal | Little to no signal | Little to no signal | decreased | strong signal | increase in signal | increase in signal
